# Ends that are not written are not given here.
# Key:
# SH-SY5Y cells = experiment: Calcium measurements, amyloid pore formation induced by Aβ1-42; assay type: cell-based, human
# Experimental: A. In a first experiment, SH-SY5Y cells were treated with Aβ1-42peptide (220 nM), and Ca^2+ dependent fluorescence was analyzed (top curve). In a second series of experiments, Aβ1-42 and the chimeric α-syn34-45/HH peptide (both 220 nM) were mixed extemporaneously directly injected onto the cells (C1 and C2 curves corresponding to two separate experiments). The C3 curve corresponds to the calcium response induced by the chimeric peptide alone. Results are expressed as mean±SD (n=100). In panel B, the same colors were used but the chimeric peptide was replaced by the wild-type α-syn34-45 peptide.
# A. SH-SY5Y cells were treated with Aβ1-42 peptide (220 nM), and Ca^2+ dependent fluorescence was analyze. […] In absence of the chimeric peptide (− Pep Chim), amyloid pore formation induced by the Aβ1-42 peptide was evidenced by an increase of Ca^2+ fluorescence inside the cells. […] Warmer colors correspond to higher fluorescence (left scale).
# Cells were plated in 35 mm culture dishes, grown during 72 h and loaded with 5 μM Fluo-4 AM (Invitrogen-Life Technologies, Saint Aubin, France) for 30 min in the dark, washed three times with HBSS (Gibco-Life Technologies, Saint-Aubin, France), and incubated for 20 min at 37° C. […] Fluorescence emission at 525 nm was imaged by a digital camera CDD (ORCA-ER Hamanatsu, Japan) after fluorescence excitation at 490 nm. […]
# [1] = tested on: bEnd-3 cells co-cultured with glial C6 cells
# Experimental: (§1) These cells are plated at various densities ranging from 10.000 to 50.000 cells per well in two-compartment cell chambers (Greiner Bio-one). The lower compartment of the chamber is a well that is part of 12-well culture plate. The upper chamber is equipped with a permeable filter (mean pore diameter of 0.4 μm) onto which the cells are seeded. The cells are cultured in DMEM/F12 10% fetal calf serum.
# (§2) At confluency, the cells formed a uniform monolayer with a transendothelial resistance of 150-200 Ω·cm^2 (measured with the EVOM apparatus, WPI). The transendothelial resistance reflects the presence of tight junctions overall the culture. These tight junctions efficiently prevent the paracellular passage of molecules. It is considered that the endothelium is tight when this value is >100 Ω·cm^2. Therefore, all experiments are performed with functional endothelial barriers. […]
# (§3) The passage of the peptide through the endothelial barrier is thus followed in real-time. The concentration of the chimeric peptide is determined by spectrophotometry. […]
# [2] = tested on: bEnd-3 cells co-cultured with astrocytic CTX-TNA2 cells
# Experimental: as §1, §2, §3
# [3] = Lipid monolayer assay (Langmuir film balance), GM1 monolayer; assay type: binding; conditions: for interaction with GM1 monolayer (surface pressure increase): peptide 10 μM in subphase
# Experimental: Peptide-cholesterol interactions were studied with the Langmuir film balance technique using a Kibron microtensiometer as previously described (Fantini and Yahi, 2011a).
# In this experiment, a monolayer of ganglioside GM1 was prepared at the air-water interface and the peptide was injected in the aqueous subphase. The interaction of the peptide with the ganglioside was evidenced by an increase in the surface pressure of the monolayer, which was followed in real-time with a platinum probe (see Thakur et al, 2009 for a full description of the technique and its application to amyloid proteins). […] Then single mutants were assayed to identify which of the two His is actually critical for GM1 recognition. […] In this model, His-13 interacted with one GM1, and His-14 with the second one. Clearly, the cooperation between both GM1 molecules allowed an optimal interaction with the Aβ5-16 peptide driven by histidine residues. Conversely, because it is devoid of these histidine residues, the glycolipid-binding domain of α-synuclein (α-syn34-45) has a marked preference for ganglioside GM3 instead of GM1.
# [4] = Lipid monolayer assay, GM3 monolayer; assay type: binding
# [5] = Lipid monolayer assay, GM4 monolayer; assay type: binding; conditions: peptide 10 μM in aqueous subphase
# [6] = Lipid monolayer assay, GD1a monolayer; assay type: binding; conditions: peptide 10 μM in aqueous subphase
# [7] = Lipid monolayer assay, GT1b monolayer; assay type: binding; conditions: peptide 10 μM in aqueous subphase
# [8] = Lipid monolayer assay, GD3 monolayer; assay type: binding; conditions: peptide 10 μM in aqueous subphase
# [9] = initial surface pressure 17.5 mN·m^−1
# [10] = ganglioside monolayer, peptide 10 μM in aqueous subphase
sequence,measurement,setting,value
"KEGVLYVGHHTK [α-syn34-45/HH, KEGVLYVGHHTK]",effect of peptide alone on Ca^2+ fluxes (intrinsic neurotoxicity),"SH-SY5Y cells; peptide alone, SH-SY5Y cells",little effect on Ca^2+ fluxes
same,transendothelial resistance after 24 hours of incubation with peptide,[1],152 Ω·cm^2
same,transendothelial resistance after 24 hours of incubation with peptide,[2],153 Ω·cm^2
KEHHGVLYVGTK [reversed chimeric peptide],interaction with GM1 monolayer (surface pressure increase),[3]; [9],recognizes both GM1 and GM3 gangliosides
same,"interaction with GM3 monolayer (surface pressure increase, kinetics)","[4]; peptide in subphase, initial surface pressure 17.5 mN·m^−1",recognizes both GM1 and GM3 gangliosides
KEGVLYVGSKTK (listed as Homo sapiens) [α-syn34-45],"Ganglioside specificity: critical pressure of insertion, GM1",[3]; [10],+ ((+) means a critical pressure of insertion <25 mN · m^−1)
same,"critical pressure of insertion (πc), GM1 monolayers","[3]; monolayers at various initial surface pressures, x-axis intercept (FIG. 2D, 4C)",25 mN·m^−1
same,"Ganglioside specificity: critical pressure of insertion, GM4",[5],+ ((+) means a critical pressure of insertion <25 mN · m^−1)
same,"Ganglioside specificity: critical pressure of insertion, GD1a",[6],+ ((+) means a critical pressure of insertion <25 mN · m^−1)
same,effect on elevation of intracellular Ca^2+ levels induced by Aβ1-42,"SH-SY5Y cells; Aβ1-42 220 nM, peptide 220 nM (equimolar), Fluo-4 AM fluorescence",only very little inhibitory activity
same,"Ganglioside specificity: critical pressure of insertion, GT1b",[7],+ ((+) means a critical pressure of insertion <25 mN · m^−1)
same,"Ganglioside specificity: critical pressure of insertion, GM3",[4]; [10],+++ ((+++) a critical pressure of insertion >25 mN · m^−1)
same,"critical pressure of insertion (πc), GM3 monolayers","[4]; monolayers at various initial surface pressures, x-axis intercept (FIG. 2B)",37.5 mN·m^−1
same,"Ganglioside specificity: critical pressure of insertion, GD3",[8],+ ((+) means a critical pressure of insertion <25 mN · m^−1)
RHDSGYEVHHQK (listed as Homo sapiens) [Aβ5-16],interaction with GM1 monolayer (surface pressure increase),[3]; [9],surface pressure started to increase immediately after the injection
same,"time to maximum surface pressure, GM1 monolayer","[3]; peptide 10 μM, initial surface pressure 17.5 mN·m^−1",30 min
